# Results reported in patent US20240366711A1, “PREPARATION CONTAINING CYCLIC PEPTIDE COMPOUND AND METHOD FOR PRODUCING SAME” (CHUGAI SEIYAKU KABUSHIKI KAISHA, priority 2021, published 2024).
# pIC50: −log10 of the molar value. Bridge positions count the residues as written; N and C are the ends. Square brackets hold non-standard residues; d marks the D form. Peptide text beside a SMILES is read from it. hPhe(3,5-F2-4-CF3) = N[C@@H](CCc1cc(F)c(C(F)(F)F)c(F)c1)C(=O)O; NEtPhe(4-Me) = CCN[C@@H](Cc1ccc(C)cc1)C(=O)O; NMeGly(cPent) = CN[C@H](C(=O)O)C1CCCC1; NMeD = CN[C@@H](CC(=O)O)C(=O)O; NMeL = CN[C@@H](CC(C)C)C(=O)O; NMeA = CN[C@@H](C)C(=O)O; Ac5c = NC1(C(=O)O)CCCC1; Aze = O=C(O)[C@@H]1CCN1; Sar = CNCC(=O)O
# Columns and labels:
# [1] = target: Kras-SOS1 protein-protein interaction (Homo sapiens, UniProt P01116, G12D); assay: Kras-SOS1 protein-protein interaction inhibition (KrasG12D-SOS PPI) using AlphaScreen; assay type: binding; settings: biotin-tagged human Kras (GDP-loaded) and His-tagged human SOS1, AlphaScreen
# Method: Kras-SOS1 protein-protein interaction inhibition (PPI) can be performed by a method known to those skilled in the art using a device, a reagent, or the like available from commercial suppliers. Specifically, biotin-tagged human Kras and His-tagged human SOS1 enzymes expressed in E. coli and loaded with GDP after purification were used to measure PPI by energy transfer from nickel-bound donor beads to streptavidin-bound acceptor beads. This measurement is performed by irradiating the donor beads with light of 680 nm to induce energy transfer to the acceptor beads via singlet oxygen, and detecting light of 520 to 620 nm from the acceptor beads. Based on the inhibition of the control group without Compound 1, 50% inhibitory concentration (IC50 value) was calculated.
# [2] = test system: Human pancreatic cancer strain AsPC-1; assay: AsPC-1 cell growth inhibitory activity (AsPC-1CGI); assay type: cell-based; settings: AsPC-1 cells, 96 hours, CellTiter-Glo; read-out: IC50 value (50% growth inhibition concentration)
# Method: AsPC-1 cell growth inhibitory activity can be performed by methods known to those skilled in the art using devices, reagents, cell lines, and the like available from commercial suppliers. Specifically, Compound 1 was serially diluted with dimethyl sulfoxide, then 200 nL of the dilution was dispensed into the U-bottom 96 well plate with Labcyte Echo. Human pancreatic cancer strain AsPC-1 was added to RPMI-1640 medium supplemented with 15% bovine fetal serum to prepare a cell suspension of 1000 cells/100 μL. The cell suspension was dispensed by 100 μL per well to Compound 1-added plates, and cultured in a 37° C., 5% carbon dioxide gas incubator. After 96 hours, 80 μL of CellTiter-Glo (Promega Corporation) was added to each well, and […] was measured. Cell growth inhibition (CGI) of the test compound was calculated as 50% growth inhibition concentration (IC50 value) from the growth inhibition rate of the case with addition of Compound I to the control without addition of Compound 1.
# Chain of Kras-SOS1 protein-protein interaction (P01116 whole entry G12D): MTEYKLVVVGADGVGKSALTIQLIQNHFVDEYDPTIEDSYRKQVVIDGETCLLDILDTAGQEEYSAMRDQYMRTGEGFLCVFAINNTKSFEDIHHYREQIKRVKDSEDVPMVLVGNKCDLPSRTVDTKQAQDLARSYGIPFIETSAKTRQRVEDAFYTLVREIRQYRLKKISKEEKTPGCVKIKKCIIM
compound,measurement,setting,value
"CC[C@H](C)[C@@H]1NC(=O)[C@H](CC(C)C)N(C)C(=O)C[C@@H](C(=O)N(C)C)N(C)C(=O)[C@H](C2CCCC2)N(C)C(=O)C2(CCCC2)NC(=O)[C@@H]2CCCN2C(=O)[C@H](CCc2cc(F)c(C(F)(F)F)c(F)c2)NC(=O)CN(C)C(=O)[C@H](Cc2ccc(C)cc2)N(CC)C(=O)[C@@H]2CCN2C(=O)[C@H](C)N(C)C1=O [Compound 1, (5S,8S,11S,15S,18S,23aS,29S,35S,37aS)-8-((S)-sec-butyl)-18-cyclopentyl-29-(3,5-difluoro-4-(trifluoromethyl)phenethyl)-36-ethyl-11-isobutyl-N,N,5,6,12,16,19,33-octamethyl-35-(4-methylbenzyl)-4,7,10,13,17,20,23,28,31,34,37-undecaoxotetratriacontahydro-2H,4H-spiro[azeto[2,1-u]pyrrolo[2,1-i][1,4,7,10,13,16,19,22,25,28,31]undecaazacyclotetratriacontin-21,1′-cyclopentane]-15-carboxamide] ([NMeL]I[NMeA][Aze][NEtPhe(4-Me)][Sar][hPhe(3,5-F2-4-CF3)]P[Ac5c][NMeGly(cPent)][NMeD]-NMe2; lactam N-11)",pIC50,[1],9.00
same,pIC50,[2],≥ 7.70
